# From patent publication US20240398831A1, “COMPOSITIONS COMPRISING SMALL MOLECULE REGULATORS OF TUMOR IMMUNITY AND METHODS OF USING SAME” (Duke University, priority 2021, published 2024)
# Tested on: CD68+ monocytes/TAMs
# Assay: Single cell RNA sequencing of tumor infiltrating immune cells from iBP tumors
# Type: in vivo, mouse
# From the text: Single Cell RNA sequencing. iBP tumors (three) were pooled and a single cell suspension was isolated. Live tumor infiltrating immune cells (CD45^+ L/D^−) were isolated by cell sorting and resuspended in PBS+0.04% BSA at a concentration of 1000 cells/μL. In total, 10,000 cells were loaded on the 10× Genomics Chromium Controller Single-Cell Instrument (10× Genomics) mixed with reverse transcription reagents along with gel beads and oil to generate single-cell gel beads in emulsions (GEMs). GEM-RT was performed in an Eppendorf Mastercycler Pro (cat #950030020, Eppendorf): 53° C. for 45 min; 85° C. for 5 min; then held at 4° C. After reverse transcription, GEMs were disrupted and the single-stranded cDNA was purified using Dynabeads MyOne Silane beads (cat #37002D, Thermo Fisher Scientific). cDNA was amplified using the Eppendorf Mastercycler Pro (cat #950030020, Eppendorf): 98° C. for 3 min; cycled 11×: 98° C. for 15 s, 67° C. for 20 s, and 72° C. for 1 min; 72° C. for 1 min; held at 4° C. The amplified cDNA product was purified with the SPRIselect Reagent Kit (0.6×SPRI) (cat #B23318, Beckman Coulter). Indexed sequencing libraries were constructed using the reagents in the Chromium Single-Cell 3′ version 3 Library Kit, following these steps: (1) fragmentation, end repair and A-tailing; (2) SPRIselect cleanup; (3) adapter ligation; (4) post ligation cleanup with SPRIselect; (5) sample index PCR; (6) PostindexPCR cleanup. The barcoded sequencing libraries were analyzed using quantitative PCR (cat #KK4824, KAPA Biosystems Library Quantification Kit for Illumina platforms). Sequencing libraries were transferred to the Duke University Center for Genomic and Computational Biology (GCB) and were loaded on a NovaSeq6000 (Illumina) for sequencing.
# scRNA seq data analysis. Sequencing data was de-multiplexed, trimmed, filtered, aligned, and quantified using the Cell Ranger pipeline (10× Genomics). Reads were aligned to CSC mm10 transcriptome and UMI count matrices for each sample was obtained. The Seurat v3.1 package was used to count matrices. For each sample, cells that express <200 or >2000 genes and cells that express >5% of mitochondrial genes were removed. Highly variable genes were identified and used for principal component analysis. Cell subpopulations were identified using the ‘FindNeighbors’ function with first 30 PCs and ‘FindClusters’ function from Seurat R package with default resolution parameters. Cells were then clustered and visualized using uniform manifold approximation and projection (UMAP) (Liu, Int. J. Mol. Sci. 2020, 21, 16). DE Wilcoxon test analysis was used to identify genes that define a cluster using known cell type signatures and genes that differ within clusters between treatments.
# Pseudotime Analysis. To infer the developmental trajectories in the monocyte/macrophage lineages, Monocle3 was used to perform the pseudotime analysis where UMAP coordinates from Seurat were used as input (Cao et al., Nature 2019, 566, 498-502). The graphtest function implemented in Monocle3 was used to find genes that vary with pseudotime where genes with q<0.01 were identified as pseudotime-dependent genes. Cells were divided into four pseudotime blocks (e.g., 0-5, 5-10, 10-15, and 15-21) based on their pseudotime estimate.
# [1] = CD68+ cells, Genes down-regulated upon E2 treatment
# [2] = CD68+ cells, Genes up-regulated upon E2 treatment
substance,measurement,setting,value
17β-estradiol [E2],AA467197 avg_logFC,[1],−1.1474
same,Actg1 avg_logFC,[1],−0.2725
same,Adam8 avg_logFC,[1],−0.5315
same,Arg1 avg_logFC,[1],−1.491
same,Arl4c avg_logFC,[1],−0.3255
same,Ass1 avg_logFC,[1],−0.2981
same,B4galt1 avg_logFC,[1],−0.2593
same,Bhlhe40 avg_logFC,[1],−0.4214
same,Bnip3 avg_logFC,[1],−0.3241
same,Cbl avg_logFC,[1],−0.2587
same,Ccl24 avg_logFC,[1],−1.196
same,Cd44 avg_logFC,[1],−0.3636
same,Cd53 avg_logFC,[1],−0.2831
same,Cdh1 avg_logFC,[1],−0.4682
same,Cish avg_logFC,[1],−0.2878
same,Clec7a avg_logFC,[1],−0.6823
same,Clic4 avg_logFC,[1],−0.2836
same,Cox17 avg_logFC,[1],−0.2516
same,Csrnp1 avg_logFC,[1],−0.2796
same,Cxcl2 avg_logFC,[1],−0.3108
same,Dazap2 avg_logFC,[1],−0.253
same,Ddx3x avg_logFC,[1],−0.2648
same,Dusp5 avg_logFC,[1],−0.2644
same,Emp1 avg_logFC,[1],−0.3016
same,Epb41l2 avg_logFC,[1],−0.2668
same,Ero1l avg_logFC,[1],−0.3681
same,Errfi1 avg_logFC,[1],−0.2612
same,Etv3 avg_logFC,[1],−0.2533
same,Fam129b avg_logFC,[1],−0.2732
same,Gatm avg_logFC,[1],−0.4728
same,Gm13339 avg_logFC,[1],−0.3235
same,Gm42418 avg_logFC,[1],−0.3099
same,Grina avg_logFC,[1],−0.2527
same,Havcr2 avg_logFC,[1],−0.2738
same,Hbegf avg_logFC,[1],−0.2883
same,Hexim1 avg_logFC,[1],−0.2598
same,Hif1a avg_logFC,[1],−0.3016
same,Hilpda avg_logFC,[1],−0.3818
same,Hk2 avg_logFC,[1],−0.3161
same,Hnrnpa2b1 avg_logFC,[1],−0.2507
same,Hnrnpu avg_logFC,[1],−0.2502
same,Id2 avg_logFC,[1],−0.3235
same,Ifi202b avg_logFC,[1],−0.4589
same,Ighm avg_logFC,[1],−0.2694
same,Il1rn avg_logFC,[1],−0.7087
same,Itgax avg_logFC,[1],−0.2718
same,Jak2 avg_logFC,[1],−0.3294
same,Lars2 avg_logFC,[1],−0.2737
same,Lcp1 avg_logFC,[1],−0.279
same,Lyz1 avg_logFC,[1],−0.3109
same,Mafb avg_logFC,[1],−0.2732
same,Malt1 avg_logFC,[1],−0.4497
same,Mir6236 avg_logFC,[1],−0.4795
same,Mmp14 avg_logFC,[1],−0.4234
same,N4bp1 avg_logFC,[1],−0.2723
same,Nampt avg_logFC,[1],−0.2539
same,Nfkb1 avg_logFC,[1],−0.3187
same,Pabpc1 avg_logFC,[1],−0.3065
same,Plek avg_logFC,[1],−0.3121
same,Prkcd avg_logFC,[1],−0.4952
same,Ptgs2 avg_logFC,[1],−0.2589
same,Qsox1 avg_logFC,[1],−0.2981
same,Rbbp6 avg_logFC,[1],−0.2693
same,Rbms1 avg_logFC,[1],−0.306
same,Rbpj avg_logFC,[1],−0.2858
same,Retnla avg_logFC,[1],−1.013
same,Rgcc avg_logFC,[1],−0.3356
same,Rhob avg_logFC,[1],−0.3443
same,Rnf19b avg_logFC,[1],−0.4071
same,Rpl23a avg_logFC,[1],−0.3395
same,Scd2 avg_logFC,[1],−0.3267
same,Sdc4 avg_logFC,[1],−0.5729
same,Slc2a1 avg_logFC,[1],−0.2726
same,Slc7a2 avg_logFC,[1],−0.4582
same,Slc7a11 avg_logFC,[1],−0.3846
same,Slpi avg_logFC,[1],−0.3695
same,Smox avg_logFC,[1],−0.2743
same,Spp1 avg_logFC,[1],−0.5367
same,Srgn avg_logFC,[1],−0.3751
same,Tapbp avg_logFC,[1],−0.2542
same,Tes avg_logFC,[1],−0.2663
same,Tgfbi avg_logFC,[1],−0.2874
same,Tgm2 avg_logFC,[1],−0.345
same,Timp1 avg_logFC,[1],−0.3922
same,Ywhaz avg_logFC,[1],−0.3465
same,Zeb2 avg_logFC,[1],−0.2704
same,Zfp36l2 avg_logFC,[1],−0.2732
same,AF251705 avg_logFC,[2],0.2639
same,Al607873 avg_logFC,[2],0.2786
same,Apoe avg_logFC,[2],0.569
same,Arl5c avg_logFC,[2],0.2656
same,Bst2 avg_logFC,[2],0.2961
same,C1qa avg_logFC,[2],0.4214
same,C1qb avg_logFC,[2],0.5188
same,C1qc avg_logFC,[2],0.4208
same,Ccrl2 avg_logFC,[2],0.3263
same,Cd14 avg_logFC,[2],0.2715
same,Cd48 avg_logFC,[2],0.2715
same,Cfh avg_logFC,[2],0.2625
same,Chil3 avg_logFC,[2],1.253
same,Ckb avg_logFC,[2],0.2847
same,Cst3 avg_logFC,[2],0.3446
same,Dpep2 avg_logFC,[2],0.3725
same,Fcer1g avg_logFC,[2],0.3137
same,Fcrls avg_logFC,[2],0.5638
same,Gdf3 avg_logFC,[2],0.2851
same,Gm10076 avg_logFC,[2],0.3757
same,Gm10222 avg_logFC,[2],0.2577
same,H2-D1 avg_logFC,[2],0.2808
same,Hint1 avg_logFC,[2],0.2548
same,Id3 avg_logFC,[2],0.2699
same,Ifi27l2a avg_logFC,[2],0.5245
same,Ifitrn2 avg_logFC,[2],0.374
same,Ifitrn3 avg_logFC,[2],0.2755
same,Itga6 avg_logFC,[2],0.3437
same,Itm2b avg_logFC,[2],0.4104
same,Lrg1 avg_logFC,[2],0.3663
same,Ly6c2 avg_logFC,[2],0.2657
same,Lyz2 avg_logFC,[2],0.2885
same,Mgl2 avg_logFC,[2],0.5712
same,Mt1 avg_logFC,[2],0.4006
same,Pf4 avg_logFC,[2],0.4715
same,Rgs10 avg_logFC,[2],0.2599
same,Rpl3 avg_logFC,[2],0.278
same,Rpl9 avg_logFC,[2],0.2585
same,Rpl21 avg_logFC,[2],0.2567
same,Rpl29 avg_logFC,[2],0.2548
same,Rplp0 avg_logFC,[2],0.333
same,Rps2 avg_logFC,[2],0.2742
same,Rps11 avg_logFC,[2],0.2704
same,Rps20 avg_logFC,[2],0.2922
same,S100a8 avg_logFC,[2],0.7858
same,Thbs1 avg_logFC,[2],0.3189
same,Trem2 avg_logFC,[2],0.4831
same,Tspo avg_logFC,[2],0.2604
same,Tmem176 avg_logFC,"CD68+ cells, Genes up-regulated upon E2 treatment, first Tmem176 line",0.3209
same,Tmem176 avg_logFC,"CD68+ cells, Genes up-regulated upon E2 treatment, second Tmem176 line",0.3394
same,"inflammation/chemokine genes (Itm2b, C1q) and M2 macrophage markers (Tspo, Vegfa, Tgm2) in CD68+ cells",E2 group,upregulated
same,"TAM markers (Trem2, Apoe, Thbs1, Spp1) in CD68+ monocyte/TAM population",E2 treated tumors,expressed
same,CD68+ monocytes/TAMs clusters,E2 vs placebo,expansion and significant changes in gene expression
same,cluster 1 (M1-like TAMs),E2 vs placebo,remained unchanged
same,cluster 3 (inflammatory monocytes),E2 vs placebo,increased
same,cluster 8,E2 vs placebo,expansion
same,cluster 9 (immune-suppressive phenotype),E2 vs placebo,significant expansion
same,cluster 15 (M1-like TAMs),E2 vs placebo,decreased
same,cluster 16 (patrolling tissue resident monocytes),E2 vs placebo,increased
same,cluster 22,E2 vs placebo,remained unchanged
same,cluster 30,E2 vs placebo,expansion
same,percentage of Ly6C^hi monocytes (cluster 2),E2 vs placebo,remained the same
